This passage reports Ki results from BindingDB's records for doi:10.1016/0014-2999(84)90478-3 (Mayo Clinic, 1984).

pKi: −log10 of the molar value. Structures can show the parent of a compound that is named as a salt.

Test [1] has as its target T1, Alpha-1A adrenergic receptor (Homo sapiens, UniProt P35348).
T1 sequence (P35348 whole entry): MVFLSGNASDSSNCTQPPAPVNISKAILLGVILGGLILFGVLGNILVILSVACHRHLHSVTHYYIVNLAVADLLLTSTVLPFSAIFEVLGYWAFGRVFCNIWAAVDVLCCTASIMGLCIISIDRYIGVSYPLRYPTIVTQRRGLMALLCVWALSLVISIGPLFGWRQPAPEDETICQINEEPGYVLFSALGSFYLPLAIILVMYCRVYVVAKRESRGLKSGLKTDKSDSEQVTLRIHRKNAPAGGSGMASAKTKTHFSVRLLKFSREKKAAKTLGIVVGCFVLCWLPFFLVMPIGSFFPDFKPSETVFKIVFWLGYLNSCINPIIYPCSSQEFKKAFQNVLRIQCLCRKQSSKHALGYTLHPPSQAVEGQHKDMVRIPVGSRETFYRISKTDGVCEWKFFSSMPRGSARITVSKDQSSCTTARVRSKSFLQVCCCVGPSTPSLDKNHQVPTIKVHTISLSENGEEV

In test [2] the target is T2, Alpha-2A adrenergic receptor (Homo sapiens, UniProt P08913).
T2 sequence (P08913 whole entry): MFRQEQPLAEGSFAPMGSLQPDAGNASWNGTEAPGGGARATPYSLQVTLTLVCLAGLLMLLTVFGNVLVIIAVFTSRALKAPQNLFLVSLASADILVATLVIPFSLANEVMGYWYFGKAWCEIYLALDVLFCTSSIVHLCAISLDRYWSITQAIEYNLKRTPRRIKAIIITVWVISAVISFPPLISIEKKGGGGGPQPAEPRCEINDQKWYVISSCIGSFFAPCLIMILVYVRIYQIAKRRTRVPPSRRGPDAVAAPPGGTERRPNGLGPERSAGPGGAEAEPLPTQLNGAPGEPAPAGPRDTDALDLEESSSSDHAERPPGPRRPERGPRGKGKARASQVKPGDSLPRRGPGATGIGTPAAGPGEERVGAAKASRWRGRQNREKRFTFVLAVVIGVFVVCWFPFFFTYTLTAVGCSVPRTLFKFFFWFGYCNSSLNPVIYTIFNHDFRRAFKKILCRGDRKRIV

In test [3] the target is D(2) dopamine receptor (Homo sapiens, UniProt P14416).
Chain of D(2) dopamine receptor (P14416 whole entry): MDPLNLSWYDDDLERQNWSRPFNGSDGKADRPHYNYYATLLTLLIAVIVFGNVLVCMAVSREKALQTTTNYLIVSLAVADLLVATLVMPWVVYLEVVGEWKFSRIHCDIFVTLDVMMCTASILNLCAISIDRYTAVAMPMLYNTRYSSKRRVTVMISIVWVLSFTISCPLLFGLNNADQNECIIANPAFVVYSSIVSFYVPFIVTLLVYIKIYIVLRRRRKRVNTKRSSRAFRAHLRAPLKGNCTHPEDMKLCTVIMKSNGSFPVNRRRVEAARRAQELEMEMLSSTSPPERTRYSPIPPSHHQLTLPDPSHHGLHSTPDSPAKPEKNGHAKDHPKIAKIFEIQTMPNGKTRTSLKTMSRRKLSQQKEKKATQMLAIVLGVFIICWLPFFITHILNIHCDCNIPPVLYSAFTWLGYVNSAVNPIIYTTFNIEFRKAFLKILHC

With `CC(C)(C)[C@]1(O)CCN2C[C@H]3c4ccccc4CCc4cccc(c43)[C@@H]2C1`, the pKi in test [1] was 7.25; in test [2], 6.51.

`CN1CCN(C2=Nc3ccccc3Oc3ccc(Cl)cc32)CC1` [13-chloro-10-(4-methylpiperazin-1-yl)-2-oxa-9-azatricyclo[9.4.0.0^{3,8}]pentadeca-1(11),3,5,7,9,12,14-heptaene]: the negative logarithm of the Ki (pKi) in test [1] is 7.55. In turn, `CN(C)CC/C=C1\c2ccccc2Sc2ccc(Cl)cc21` gave a pKi in test [3] of 8.10. The same measure, in the same setting: the figure for `CN1CCN(CCCN2c3ccccc3Sc3ccc(C(F)(F)F)cc32)CC1` is 8.59. Consider `CN(C)CCCN1c2ccccc2Sc2ccccc21`, for which the pKi is 8.22 in test [1], 6.80 in test [3] and 6.05 in test [2]. For the molecule `O=C(CCCN1CCC2(CC1)C(=O)NCN2c1ccccc1)c1ccc(F)cc1` [8-[4-(4-fluorophenyl)-4-oxidanylidene-butyl]-1-phenyl-1,3,8-triazaspiro[4.5]decan-4-one], the values for the pKi in test [1] and in test [2] were 8.92 and 6.18, respectively. For `CN1CCN(CC/C=C2/c3ccccc3Sc3ccc(S(=O)(=O)N(C)C)cc32)CC1` [MLS000028463], the pKi in test [1] is 7.96; in test [3], 9.35; in test [2], 6.70. As to `CN1CCCCC1CCN1c2ccccc2Sc2ccc([S+](C)[O-])cc21` (stereo unspecified), the pKi was 8.70 in test [1], 7.72 in test [3] and 5.80 in test [2]. As to `OCCN1CCN(CCCN2c3ccccc3Sc3ccc(C(F)(F)F)cc32)CC1` [2-[4-[3-[2-(trifluoromethyl)phenothiazin-10-yl]propyl]piperazin-1-yl]ethanol;hydrochloride], the pKi in test [1] was […]; in test [2], […]. Regarding `CN(C)CCCN1c2ccccc2Sc2ccc(C(F)(F)F)cc21` [TRIFLUPROMAZINE], in test [3], the pKi is 8.55.

In test [3], `OCCN1CCN(CCCN2c3ccccc3Sc3ccc(Cl)cc32)CC1` [4-[3-(2-chlorophenothiazin-10-yl)propyl]-1-piperazineethanol] gave a negative logarithm of the Ki (pKi) of 8.85. The same measure, in the same setting: with `CCc1c(C)[nH]c2c1C(=O)C(CN1CCOCC1)CC2` (stereo unspecified) [Moban] the figure was 6.92.

For orientation: pKi means the negative decadic logarithm of the Ki, by convention in mol/L. Read a high pKi as a small Ki.
